Results: the supplement of paper PMC8967900

What was measured:
Assay in all cases: selective drug sensitivity score (sDSS, relative to normal bone marrow) (sDSS (score)); higher = more potent and effective on the cell line relative to normal bone marrow cells
Conditions in all cases: 72 h
[1] = tested on: TMD5
[2] = tested on: HPB-ALL
[3] = tested on: NALL-1
[4] = tested on: KARPAS-45
[5] = tested on: ALL-SIL
[6] = tested on: DND-41
[7] = tested on: SEM cells
[8] = tested on: MHH-CALL-4
[9] = tested on: PF-382
[10] = tested on: MHH-CALL-2
[11] = tested on: KASUMI-2
[12] = tested on: RCH-ACV
[13] = tested on: LC4-1
[14] = tested on: REH
[15] = tested on: CCRF-CEM
[16] = tested on: TANOUE
[17] = tested on: ALL-PO
[18] = tested on: KASUMI-10
[19] = tested on: RPMI-8402
[20] = tested on: 380
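Note: ALL cell lines in 384-well plates, five doses spanning 10,000-fold, each plate scaled between vehicle and 100 µmol/L benzalkonium chloride controls, sDSS an adapted area-under-curve metric.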

| SMILES | selective drug sensitivity score [1] | selective drug sensitivity score [2] | selective drug sensitivity score [3] | selective drug sensitivity score [4] | selective drug sensitivity score [5] | selective drug sensitivity score [6] | selective drug sensitivity score [7] | selective drug sensitivity score [8] | selective drug sensitivity score [9] | selective drug sensitivity score [10] | selective drug sensitivity score [11] | selective drug sensitivity score [12] | selective drug sensitivity score [13] | selective drug sensitivity score [14] | selective drug sensitivity score [15] | selective drug sensitivity score [16] | selective drug sensitivity score [17] | selective drug sensitivity score [18] | selective drug sensitivity score [19] | selective drug sensitivity score [20] |
| --- | --- | --- | --- | --- | --- | --- | --- | --- | --- | --- | --- | --- | --- | --- | --- | --- | --- | --- | --- | --- |
| CN[C@@H]1C[C@H]2O[C@@](C)([C@@H]1OC)n1c3ccccc3c3c4c(c5c6ccccc6n2c5c31)C(=O)N[C@H]4O [UCN-01] (top concentration 10000 nM) | -0.36 | 6.04 | 0.94 | 6.74 | 3.14 | 7.44 | 7.74 | 8.14 | 5.44 | 7.94 | 2.84 | 18 | 1.54 | 5.24 | 6.04 | -9.56 | 8.64 | 6.94 | 5.24 | 13.5 |
| Cn1cc(CNCC2CCN(c3ncc(C(=O)NO)cn3)CC2)c2ccccc21 [Quisinostat] (top concentration 1000 nM) | 5.08 | 6.88 | -0.72 | 8.18 | 5.68 | 2.98 | 6.38 | 5.98 | 2.08 | 8.28 | 12.4 | 14.2 | 7.38 | -1.12 | 3.98 | -7.62 | 5.98 | 7.38 | 5.58 | 6.68 |
| C[C@H]1C=C2C(=O)O[C@H]3CC[C@@H](C1)[C@@]23O [Galiellalactone] (top concentration 25000 nM) | 1.46 | 5.16 | -4.54 | 5.16 | 5.56 | 3.86 | 3.56 | -3.84 | 4.16 | 4.16 | -0.44 | 7.76 | 7.16 | 3.66 | 5.86 | -0.94 | -0.34 | 4.56 | 0.06 | 13 |
| C=CC(=O)N1CC/C(=C\c2ccc(F)c([N+](=O)[O-])c2)C(=O)/C(=C/c2ccc(F)c([N+](=O)[O-])c2)C1 [VLX1570] (top concentration 10000 nM) | -2.62 | -1.22 | -4.52 | -1.02 | -3.62 | 1.18 | 3.38 | -1.22 | -1.72 | -3.32 | -2.62 | 1.58 | 0.68 | 1.98 | 1.58 | -6.32 | 0.38 | 1.58 | -6.52 | 6.88 |
| CCS(=O)(=O)N1CCN(c2ccc(Nc3ncc(C(N)=O)c(NC4CC4)n3)cc2)CC1 [Cerdulatinib] (top concentration 10000 nM) | -4.46 | -11.9 | -8.76 | -2.36 | -0.76 | 2.54 | 2.54 | -5.46 | -5.16 | -8.26 | -11.9 | 13.3 | -9.46 | -5.16 | -6.26 | -10.1 | 6.04 | 0.24 | -5.56 | -11.9 |
| Nc1cc(F)ccc1NC(=O)c1ccc(CNC(=O)/C=C/c2cccnc2)cc1 [Tucidinostat] (top concentration 10000 nM) | 4.14 | 3.44 | -2.76 | 8.74 | 10.4 | 1.04 | 10.3 | 9.94 | 0.74 | 9.14 | 8.84 | 11.1 | 3.94 | 3.34 | 2.44 | -8.66 | 2.94 | 3.04 | 2.94 | 12.5 |
| CCN(CC)CCNC(=O)c1c(C)[nH]c(/C=C2\C(=O)Nc3ccc(F)cc32)c1C [Sunitinib] (top concentration 1000 nM) | 3.26 | -1.44 | -1.44 | -0.64 | 0.76 | -1.44 | 15.3 | 2.06 | -1.44 | 1.86 | -1.44 | 1.46 | -0.84 | -1.44 | -1.44 | -1.44 | 14.2 | 10.4 | -1.24 | -1.44 |
| CN[C@@H](C)C(=O)N[C@H](C(=O)N1CCC[C@H]1c1nc(C(=O)c2ccc(F)cc2)cs1)C1CCCCC1 [NVP-LCL161] (top concentration 25000 nM) | -1.92 | -2.62 | 2.48 | -1.82 | 0.08 | -2.72 | -0.22 | 1.58 | -4.12 | 3.98 | 2.88 | -0.52 | -5.42 | 2.38 | 1.18 | -5.82 | 0.38 | -3.52 | -2.42 | -5.02 |
| COCC[n+]1c2c(n(Cc3cnccn3)c1C)C(=O)c1ccccc1C2=O [Sepantronium_bromide] (top concentration 10000 nM) | 20.5 | 6.34 | 16.2 | 11 | -3.26 | -7.46 | 13.3 | 19.4 | 14.1 | 22.8 | 19.5 | 17.9 | 22.3 | 17.8 | 8.44 | 14.7 | 4.44 | 18.6 | 7.64 | 22 |
| CCN(CCO)CCCOc1ccc2c(Nc3cc(CC(=O)Nc4cccc(F)c4)[nH]n3)ncnc2c1 [AZD1152-HQPA] (top concentration 1000 nM) | 9.14 | 4.34 | 9.54 | 24.7 | 23.4 | -1.46 | 15.7 | 2.04 | 9.94 | 6.64 | 6.44 | 14 | 23.2 | 17.2 | 16.9 | -3.06 | 7.64 | 16 | 13 | 20.8 |
| O=C(Nc1nc2cccc(-c3ccc(CN4CCS(=O)(=O)CC4)cc3)n2n1)C1CC1 [Filgotinib] (top concentration 10000 nM) | 0.16 | -1.34 | 5.86 | -1.04 | -0.24 | 1.66 | 1.96 | 2.86 | -2.24 | 5.36 | -0.74 | 1.56 | -1.94 | 1.16 | -1.34 | -5.34 | 6.16 | 1.46 | -2.24 | 11.7 |
| Cn1cc(-c2[nH]c3cc(NC(=O)[C@H](N)C4CCCCC4)cc4c3c2C=NNC4=O)cn1 (top concentration 10000 nM) | -0.12 | 9.68 | 4.58 | 6.78 | 9.18 | 10.3 | 7.28 | 0.88 | 4.48 | 3.48 | -6.12 | 11.5 | 7.58 | 10.2 | 6.08 | -5.22 | 9.28 | 5.88 | 9.68 | 8.68 |
| C#Cc1cccc(Nc2ncnc3cc(OCCOC)c(OCCOC)cc23)c1 [Erlotinib] (top concentration 10000 nM) | -0.34 | 0.66 | -1.24 | 2.86 | 5.36 | -1.24 | 1.86 | -1.24 | 0.46 | 1.76 | 3.96 | 4.26 | 8.66 | -0.84 | 2.06 | -1.24 | 5.46 | 4.06 | 2.26 | 2.36 |
| C[C@@H]1COC(Nc2ccc3ncnc(Nc4ccc(OCc5nccs5)c(Cl)c4)c3c2)=N1 [Varlitinib] (top concentration 10000 nM) | 3.02 | 1.92 | -0.18 | -0.18 | 2.92 | -0.18 | 2.92 | 0.82 | -0.18 | 5.02 | -0.18 | 5.92 | 20.2 | 7.62 | -0.18 | -0.18 | 5.12 | -0.18 | 4.92 | 18.5 |
| CC(=O)c1c(C)c2cnc(Nc3ccc(N4CCNCC4)cn3)nc2n(C2CCCC2)c1=O [Palbociclib] (top concentration 10000 nM) | -5.22 | 2.78 | -1.72 | 3.68 | -2.12 | 2.48 | 4.98 | -1.82 | 5.48 | 3.68 | 0.88 | 16.1 | 4.38 | 3.08 | 4.38 | -6.12 | 4.08 | 0.88 | 5.98 | -0.12 |
| C[C@H]1O[C@@H](O[C@H]2[C@@H](O)C[C@H](O[C@H]3[C@@H](O)C[C@H](O[C@H]4CC[C@@]5(C)[C@H](CC[C@@H]6[C@@H]5C[C@@H](O)[C@]5(C)[C@@H](C7=CC(=O)OC7)CC[C@]65O)C4)O[C@@H]3C)O[C@@H]2C)C[C@H](O)[C@@H]1O [Digoxin] (top concentration 1000 nM) | 6.9 | 5.5 | 6.3 | 12.3 | 5.6 | 2.4 | 10 | 5.6 | 11.1 | 11.9 | 5.9 | 8.1 | 7.8 | 6.3 | 8.9 | -2.9 | 4 | 10 | 8.3 | 22.5 |
| Cc1c(-c2c(-c3ccc(F)o3)sc3ncnc(O[C@H](Cc4ccccc4OCc4ccnn4CC(F)(F)F)C(=O)O)c23)ccc(OCCN2CCN(C)CC2)c1Cl (top concentration 1000 nM) | -7.74 | -2.44 | -7.74 | -0.24 | -1.04 | -7.74 | -6.44 | -4.64 | -7.74 | -6.04 | -4.34 | -6.54 | -0.54 | -6.84 | -0.24 | -7.74 | -7.74 | -2.64 | -4.54 | 0.86 |
| Cc1nc(NC(=O)N2CCC[C@H]2C(N)=O)sc1-c1ccnc(C(C)(C)C(F)(F)F)c1 [Alpelisib] (top concentration 2500 nM) | -0.82 | 2.88 | -0.82 | 0.38 | 6.28 | -0.82 | -0.82 | -0.22 | 0.48 | 1.68 | 1.98 | 8.98 | 0.98 | -0.12 | 0.48 | -0.82 | 3.28 | -0.12 | -0.02 | 3.18 |
